In the assay the test system is COX-2 gene. The experiment in a line: Real-time PCR, COX-2 gene expression. Format: cell-based, human. The note with it: relative to untreated control (1). As for the experimental part: The expression level of the following six genes (Ki-67, Survivin, Interleukin-1 beta (IL-1B), Interleukin-6 (IL-6), Cyclooxygenase-2 (COX-2) and protein kinase B (AKT1)) was determined in MCF7 and HEP2 treated with the IC50 of compound 5c. The untreated cells were used as a negative control for comparison purposes. […] Ki-67 is a popular proliferation marker for human tumor cells. […] Survivin is an inhibitor of apoptotic protein (IAP) family member, which is essential for cell division. The lowering of the expression of survivin inhibited tumor development, triggered apoptosis, and made tumor cells more susceptible to radiation and chemotherapy (Albadari and Li [2023]). […] IL-1B is a pleiotropic mediator of inflammation, which is produced in response to a variety of stressors (Aarreberg et al. [2019]). […] IL-6 is a pro-inflammatory cytokine that plays a significant role in the proliferation and differentiation of human cells. It promotes the production of numerous proteins involved in acute inflammation (Uciechowski and Dempke [2020]). […]
The expression level of the following six genes (Ki-67, survivin, AKT1, IL-6, COX2, and IL-1B) was examined using real-time polymerase chain reaction (qPCR) (Mohamed et al. [2023a]). […] The cycle threshold (Ct) was determined automatically. […]
In general terms: Real-time PCR tracks product formation cycle by cycle.

SMILES strings stand for the structures.

Regarding `COc1ccc(NC(=O)COc2ccc(C=CC(=O)c3cccs3)cc2)cc1` [Compound 5c, N-(4-Methoxyphenyl)-2-(4-(3-oxo-3-(thiophen-2-yl)prop-1-en-1-yl)phenoxy)acetamide], the COX2 expression folding is, setting by setting: (HEP2 cells treated with IC50 of 5c) 0.547±0.0321 fold; (MCF7 cells treated with IC50 of 5c) 0.502±0.073 fold.
